The test system of assay [1] is HT-29 cells. Nature of the assay: Growth inhibition, SRB assay, HT-29. The class given is cell-based, human.
The target in assay [2] is T1, cyclooxygenase (Type 1), COX-I (Ovis aries, UniProt P05979).
T1 sequence (P05979 25-600): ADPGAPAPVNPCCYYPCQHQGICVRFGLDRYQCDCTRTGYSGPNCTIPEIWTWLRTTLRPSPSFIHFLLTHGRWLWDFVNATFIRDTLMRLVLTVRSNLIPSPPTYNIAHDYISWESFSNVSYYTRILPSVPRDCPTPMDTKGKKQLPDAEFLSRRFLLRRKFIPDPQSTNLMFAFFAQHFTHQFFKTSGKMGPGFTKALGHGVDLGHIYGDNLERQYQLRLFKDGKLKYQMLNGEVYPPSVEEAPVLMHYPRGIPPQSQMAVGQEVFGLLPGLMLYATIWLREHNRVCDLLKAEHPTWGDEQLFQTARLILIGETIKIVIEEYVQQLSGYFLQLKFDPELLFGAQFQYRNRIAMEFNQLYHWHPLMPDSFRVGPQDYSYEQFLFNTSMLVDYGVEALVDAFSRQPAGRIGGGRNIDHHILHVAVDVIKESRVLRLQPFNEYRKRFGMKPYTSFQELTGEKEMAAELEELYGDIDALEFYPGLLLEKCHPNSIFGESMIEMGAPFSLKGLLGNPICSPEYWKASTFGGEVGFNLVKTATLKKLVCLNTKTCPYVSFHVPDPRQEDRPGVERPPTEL
Nature of the assay: COX inhibition assay, purified cyclooxygenase. To be noted: for COX-I inhibition: FIG. 5.

Assay [3] concerns the target T2, cGMP binding sites of the GST-cGB-PDE5 Protein (Homo sapiens, UniProt O76074).
T2 construct: made in house; host or cells: E. coli BL21 (DE3)
Nature of the assay: cGMP binding assay with GST-cGB-PDE5 fusion protein. To be noted: 3H-cGMP 2 μM.

In assay [4] the test system is cGMP PDE from human colon HT-29 cultured tumor cells. Nature of the assay: cGMP PDE inhibition assay. The class given is biochemical.
Assay [5] concerns the target T3, novel cGMP-specific PDE (Peak B) from SW480 cells (Homo sapiens, UniProt O00408).
T3 construct: IC50 Peak B (μM)
Nature of the assay: cGMP hydrolysis inhibition, novel PDE peak B (Section IA) from SW480. The format is biochemical.

The target in assay [6] is T4, Peak A (PDE5) from SW480 cells (Homo sapiens, UniProt O76074).
T4 construct: To isolate the novel phosphodiesterase from SW480, approximately four hundred million SW480 cells were grown to confluence; endogenous in cells; host or cells: SW480 colon cancer cells; DEAE-Trisacryl M fraction (peak A)
Nature of the assay: cGMP hydrolysis inhibition, PDE peak A from SW480. The class given is biochemical.

Assay [7] relates to HT-29 cells. Nature of the assay: cGMP and cAMP levels in HT-29 cells by radioimmunoassay. The class given is cell-based, human. The conditions noted are these: HT-29 cells treated 30 minutes.
Assay [8] concerns premalignant lesions in mouse mammary gland organ culture. Description: Mammary gland organ culture model. The format is cell-based. From the text: Test compounds identified by the above methods can be tested for antineoplastic activity by their ability to inhibit the incidence of pre-neoplastic lesions in a mammary gland organ culture system. This mouse mammary gland organ culture technique has been successfully used by other investigators to study the effects of known antineoplastic agents such as certain NSAIDs, retinoids, tamoxifen, selenium, and certain natural products, and is useful for validation of the screening method of the present invention.
For example, female BALB/c mice can be treated with a combination of estradiol and progesterone daily, in order to prime the glands to be responsive to hormones in vitro. The animals are sacrificed, and thoracic mammary glands are excised aseptically and incubated for ten days in growth media supplemented with insulin, prolactin, hydrocortisone, and aldosterone. DMBA (7,12 dimethylbenz(a)anthracene) is added to medium to induce the formation of premalignant lesions. Fully developed glands are then deprived of prolactin, hydrocortisone, and aldosterone, resulting in the regression of the glands but not the pre-malignant lesions.
The test compound is dissolved in DMSO and added to the culture media for the duration of the culture period. At the end of the culture period, the glands are fixed in 10% formalin, stained with alum carmine, and mounted on glass slides. The incidence of forming mammary lesions is the ratio of the glands with mammary lesions to […]. The incidence of mammary lesions in test compound treated glands is compared with that of the untreated glands.
The extent of the area occupied by the mammary lesions can be quantitated by projecting an image of the gland onto a digitation pad. The area covered by the gland is traced on the pad and considered as 100% of the area. The space covered by each of the non-regressed structures is also outlined on the digitization pad and quantitated by the computer.
Mammary gland organ culture experiment were performed as previously described (Mehta and Moon, Cancer Research, 46:5832-5835, 1986). […]

Assay [9] has as its system HT-29 cells. Description: Growth inhibition, viable cell count after trypan blue staining. The format is cell-based, human. To be noted: HT-29, 120 μM. As for the experimental part: Growth inhibition (15A top) was measured by counting viable cells after trypan blue staining. Apoptosis (15B bottom) was measured by morphological determination following staining with acridine orange and ethidium bromide as described previously (Duke and Cohen, in: Current Protocols in Immunology, 3.17.1-3.17.16, New York, John Wiley and Sons, 1992). […] All data were collected from the same experiment.

In assay [10] the test system is HT-29 cells. Description: Apoptosis and necrosis by morphology (acridine orange, ethidium bromide) in HT-29. The format is cell-based, human. The source says: Apoptosis occurs naturally during normal tissue turnover and during embryonic development of organs and limbs. Apoptosis also is induced by cytotoxic T-lymphocytes and natural killer cells, by ionizing radiation and by certain chemotherapeutic drugs. Inappropriate regulation of apoptosis is thought to play an important role in many pathological conditions including cancer, AIDS, or Alzheimer's disease, etc. Compounds can be screened for induction of apoptosis using cultures of tumor cells maintained under conditions as described above. Treatment of cells with test compounds involves either pre- or post-confluent cultures and treatment for two to seven days at various concentrations. Apoptotic cells are measured in both the attached and “floating” compartments of the cultures. […]
Apoptotic and necrotic cell death was determined previously (Duke and Cohen, In: Current Protocols in Immunology, 3.17.1 -3.17.16, New York, John Wiley and Sons, 1992). […]
The apoptosis inducing activity for a series of phosphodiesterase inhibitors was determined. […] Apoptosis and necrosis were determined morphologically after acridine orange and ethidium bromide labeling in accordance with the assay described, supra.

10 compounds from patent US6500610B1, “Methods for identifying compounds for inhibiting of neoplastic lesions, and pharmaceutical compositions containing such compounds” (Cell Pathways, INC, priority 1997, dated 2002) can be followed below.

The structures appear in SMILES notation. Where two headings read alike, the source gives them in different places.

T3 sequence (O00408 2-941): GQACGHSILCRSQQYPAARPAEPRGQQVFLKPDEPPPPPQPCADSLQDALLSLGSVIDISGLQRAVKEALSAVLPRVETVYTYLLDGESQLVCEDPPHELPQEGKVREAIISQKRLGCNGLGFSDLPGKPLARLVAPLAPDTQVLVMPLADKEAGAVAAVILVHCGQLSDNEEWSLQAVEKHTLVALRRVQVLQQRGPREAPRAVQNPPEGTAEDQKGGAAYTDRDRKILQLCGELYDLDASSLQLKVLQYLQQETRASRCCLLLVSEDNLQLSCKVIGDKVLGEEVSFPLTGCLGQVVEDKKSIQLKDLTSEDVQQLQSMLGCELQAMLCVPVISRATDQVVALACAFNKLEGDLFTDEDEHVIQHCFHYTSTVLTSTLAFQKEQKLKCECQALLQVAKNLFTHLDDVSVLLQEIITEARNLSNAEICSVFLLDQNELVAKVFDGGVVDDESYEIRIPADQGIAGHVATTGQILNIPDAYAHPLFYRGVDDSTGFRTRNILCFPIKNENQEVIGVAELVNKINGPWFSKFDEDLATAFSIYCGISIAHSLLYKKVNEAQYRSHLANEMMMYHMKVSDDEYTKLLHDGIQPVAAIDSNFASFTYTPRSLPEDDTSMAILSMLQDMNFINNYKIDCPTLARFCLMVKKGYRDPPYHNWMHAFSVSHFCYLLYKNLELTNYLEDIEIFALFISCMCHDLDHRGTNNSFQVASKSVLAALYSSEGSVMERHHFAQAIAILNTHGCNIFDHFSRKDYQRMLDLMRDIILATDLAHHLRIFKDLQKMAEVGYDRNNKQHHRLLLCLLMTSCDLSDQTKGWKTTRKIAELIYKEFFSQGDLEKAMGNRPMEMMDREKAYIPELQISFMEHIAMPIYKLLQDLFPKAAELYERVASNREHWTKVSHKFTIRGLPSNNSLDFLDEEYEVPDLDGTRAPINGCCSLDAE

As for `CC(=O)NC(CSC12CC(=O)OC1(C)/C(=C/c1ccc(S(C)(=O)=O)cc1)c1ccc(F)cc12)C(=O)O` (racemic) [D, rac-(E)-1-(butan-1′,4′-olido)-[3′,4′:1,2]-6-fluoro-2-methyl-3-(p-methylsulfonylbenzylidene)-1S-indanyl-N-acetylcysteine], the “Growth % Inhibition at 100 μM” value with HT-29 cells [1] came out at 78%. Also, in assay [2], the “COX % Inhibition at 100 μM” value is less than 25%.
As for `COc1cc(C=C2C(C)=C(CC(=O)O)c3cc(F)ccc32)cc(OC)c1OC` [Compound B, (Z)-5-Fluoro-2-methyl-1-(3,4,5-trimethoxybenzylidene)-3-acetic acid], the “competition with cGMP in binding of GST-cGB-PDE5” value (from here on “competition with cGMP in binding”) in assay [3] is listed as “None of the PDE5 inhibitors showed any competition with cGMP”. The “cGMP PDE % Inhibition at 10 μM” value in assay [4] is recorded as less than 25%. The COX-I inhibition entry in assay [2] is “neither test compound B and E significantly inhibit COX-I”.
For the compound `CC1=C(CC(=O)O)c2cc(F)ccc2/C1=C\c1ccc(Cl)cc1` [Compound C, (Z)-5-Fluoro-2-methyl-1-(p-chlorobenzylidene)-3-acetic acid], in the assay on HT-29 cells [1], the “Growth % Inhibition at 100 μM” value stood at 80%. For the same compound, the “cGMP PDE % Inhibition at 10 μM” value in assay [4] is listed as less than 25%.
As for `COc1cc(/C=C2/C(C)=C(CC(=O)NCc3ccccc3)c3cc(F)ccc32)cc(OC)c1OC` [Compound E, (Z)-5-Fluoro-2-methyl-1-(3,4,5-trimethoxybenzylidene)-3-indenylacetamide, N-benzyl], in assay [3], the “competition with cGMP in binding” value is reported as “None of the PDE5 inhibitors showed any competition with cGMP”. For the same compound, the “competitive (with cGMP) binding to PDE peak B” value in [5] is given as “competitively (with cGMP) binds to PDE peak B”. In addition, the “cGMP PDE % Inhibition at 10 μM” value in assay [4] (10 µM) is reported as 75%. For the same compound, in [6], the “competitive (with cGMP) binding to PDE 5 (peak A)” value is given as “does competitively (with cGMP) bind to PDE 5”. For the same compound, the COX-I inhibition entry in [2] was “neither test compound B and E significantly inhibit COX-I”.
As for `Clc1cccc(Nc2nnc(-c3ccccc3)c3ccccc23)c1` [MY5445, 1-(3-chloroanilino)-4-phenyphthalazine, reference compound], the “COX % Inhibition at 100 μM” value in assay [2] came to 94%.
For the compound `COc1ccc(C2CNC(=O)C2)cc1OC1CCCC1` (stereo not shown) [Rolipram], the “levels of cAMP” value in the assay with HT-29 cells [7] is “increased cAMP”.
On to `CCCc1nn(C)c2c(=O)[nH]c(-c3cc(S(=O)(=O)N4CCN(C)CC4)ccc3OCC)nc12` [Sildenafil, reference compound], for which the “inhibition of activity of peak A” value in assay [6] is reported as “inhibited activity of peak A”.
For `CSc1ccc(/C=C2/C(C)=C(CC(=O)O)c3cc(F)ccc32)cc1` [Sulindac sulfide], in [3], the “competition with cGMP in binding” value is recorded as “None of the PDE5 inhibitors showed any competition with cGMP”. Also, in [8], the “inhibition of formation of premalignant lesions” value was “inactive”. In the assay on HT-29 cells [9], the “growth inhibition, viable cell count time course” value is recorded as “capable of inhibiting tumor cell growth”. Besides, in assay [4], the “cGMP PDE % Inhibition at 10 μM” value was 97%. Moreover, in the assay on HT-29 cells [7], the “increase of levels of cGMP” value is “greater than 50%” and the “levels of cAMP” value was “unaffected”. In the assay with HT-29 cells [10] (HT-29, 120 μM), the “apoptosis, time course” value is “accompanied by an increase in apoptosis”. Besides, the “apoptotic and necrotic cell death” value in the assay with HT-29 cells [10] (HT-29, treated six days) was “capable of causing apoptotic cell death without inducing necrosis”.
For the compound `CCCOc1ccccc1-c1nc2nn[nH]c2c(=O)[nH]1` [Zaprinast], the “competition with cGMP in binding” value in assay [3] was “None of the PDE5 inhibitors showed any competition with cGMP”.
As to `CC1=C(CC(=O)O)c2cc(F)ccc2/C1=C\c1ccc([S+](C)[O-])cc1` (stereo not shown) [sulindac], the “inhibition of formation of premalignant lesions” value in assay [8] is listed as “effectively inhibit the formation of premalignant lesions”.
